Test results taken from publication PMC8253137, “Microbiota-derived butyrate is an endogenous HIF prolyl hydroxylase inhibitor” (Gut Microbes, 2021).

How the values were obtained:
[1] = system: T84 cells; assay: 2-OG levels in T84 cells; type: cell-based; conditions: 3 h
Description: (§1) T84 cells were cultured in 95% air with 5% CO2 at 37°C in standard media made of DMEM:F-12 supplemented with 10% calf serum, 1% penicillin/streptomycin, and 1% GlutaMAX™ (ThermoFisher Scientific) on 9.6 cm^2 6-well plates (ThermoFisher Scientific). Real-time oxygen sensing was done using the SensorDish Reader from Applikon Biotechnology as described previously with T84 cells plated on 0.33 cm^2 transwell inserts (Corning, 0.4 μm).[12] All MCPA treatments included a 2 h pretreatment with MCPA before treatment with butyrate.
Metabolites Extractions and HPLC-DAD: Cell and colon tissue metabolites were extracted and analyzed as previously described with minor variations.[61],[62] The metabolites were detected by absorption at wavelengths of 210, 254, and 280 nm, with their absorbance spectra and retention times verified by co-injection with authentic standards. Metabolites for HPLC-ESI MS analyses were resuspended in deionized water (pH 7.2).
HPLC-ESI MS: Analyses were performed on an Agilent Technologies 1260 Infinity II LC/MSD iQ with electrospray ionization (ESI) mass detection. Negative ion mass-to-charge ratios (m/z) were scanned from 50 to 500. The metabolite extracts were chromatographed using a Sepax Carbomix column (Pb-Np5:8%, 5 μm, non-porous, 4.6 × 300 mm) (mobile phase A: water; mobile phase B: acetonitrile; column temperature, 75°C). Chromatographic separation was performed using a combination of isocratic and gradient methods, including column washing and equilibration periods at the end (0 min: 100% A, 0.12 mL/min; 60 min: 100% A, 0.12 mL/min; 70 min: 70% A, 0.5 mL/min; 145 min: 70% A, 0.5 mL/min; 150 min: 100% A, 0.5 mL/min; 164 min, 100% A, 0.5 mL/min; 165 min, 100% A, 0.12 mL/min; 170 min, 100% A, 0.12 mL/min).

[2] = system: T84 cells; assay: HIF stabilization in T84 cells (HIF-1α target mRNA, HIF-1α western blot); type: cell-based; conditions: 4 h
Description: as §1
TRIzol® reagent (ThermoFisher Scientific) was used to isolate total RNA from T84 cells. Mouse colon tissue samples were harvested into RNAlater™ (Invitrogen) and stored at 4°C for 48 h. Total RNA was isolated from the tissues using RNeasy Plus Mini Kit (Qiagen). cDNA was prepared using the iScript cDNA Synthesis Kit (Bio-Rad). Quantitative PCR analysis was performed using the Power SYBR™ Green master mix (Applied Biosystems) in a thermocycler. Fold change in expression of target mRNA relative to β-actin (ACTB) mRNA was calculated using the delta-delta Ct method. Primer sequences used are as follows: hBNIP3 – forward, 5′- […] −3′, reverse, 5′- […] −3′; hBNIP3L – forward, 5′- […] −3′, reverse, 5′- […] −3′; hGLUT1 – forward, 5′- […] −3′, reverse, 5′- […] −3′; hACTB – forward, 5′- […]-3′, reverse, 5′- […]-3′; mBnip3 – forward, 5′- […] −3′, reverse, 5′- […] −3′; mBnip3l – forward, 5′- […] −3′, reverse, 5′- […] −3′; mGlut1 – forward, 5′- […] −3′, reverse, 5′- […] −3′; and mActb – forward, 5′- […] −3′, reverse, 5′- […] −3′.
T84 cells were rinsed with PBS and collected and lysed in 200 µL of radioimmunoprecipitation assay (RIPA, 50 mM Tris-HCl pH 8.0, 1 mM EDTA, 1% Triton X-100, […], 0.5% sodium deoxycholate, 150 mM NaCl) buffer with protease inhibitors on ice. Mouse colon samples were harvested into 350 µL of RIPA buffer and flash frozen in liquid nitrogen. Samples were homogenized by sonication, and insoluble materials removed by centrifugation at 10,000 g for 5 min at 4°C. Protein quantity of the supernatant was determined using the Bradford reagent. […]

[3] = system: murine enteroids; assay: HIF stabilization in differentiated murine enteroids; type: cell-based, mice; conditions: butyrate with or without 1 mM MCPA, 4 h
Description: Murine intestinal organoids/enteroids were isolated from wild-type C57BL/6 mice and cultured as previously described.[60] Briefly, colonic tissues were minced and then enzymatically digested and dissociated in GentleMACS tubes (Milteny Biotec). The homogenized tissues were then filtered through a 70 µm cell strainer and resuspended in Matrigel (Corning). Cells were cultured in L-WRN conditioned media until ready for differentiation into an epithelial lineage, in which the cells were incubated for 2 d in L-WRN media diluted 5-fold with DMEM:F-12 supplemented with 10% calf serum, 1% penicillin/streptomycin, and 1% GlutaMAX™. […] MCPA treatment also includes a 2 h pretreatment with MCPA before butyrate was added.
TRIzol® reagent (ThermoFisher Scientific) was used to isolate total RNA from T84 cells. […] Quantitative PCR analysis was performed using the Power SYBR™ Green master mix (Applied Biosystems) in a thermocycler. Fold change in expression of target mRNA relative to β-actin (ACTB) mRNA was calculated using the delta-delta Ct method. […]
T84 cells were rinsed with PBS and collected and lysed in 200 µL of radioimmunoprecipitation assay (RIPA, 50 mM Tris-HCl pH 8.0, 1 mM EDTA, 1% Triton X-100, […], 0.5% sodium deoxycholate, 150 mM NaCl) buffer with protease inhibitors on ice. […] Protein quantity of the supernatant was determined using the Bradford reagent. […]

CCCC(=O)O [Butyrate]
2-OG levels compared to control ([1]; 10 mM butyrate or 30 μM IOX2): significantly increased
2-OG levels in the presence of MCPA ([1]; 10 mM butyrate with 1 mM MCPA): significantly increased
HIF stabilization in the presence of MCPA ([2]; 10 mM butyrate with 1 mM MCPA): still stabilized HIF
HIF-1α protein levels ([2]; 10 mM butyrate): increased
HIF-1α target gene mRNA (BNIP3, BNIP3L, GLUT1) ([2]; 10 mM butyrate): induction
HIF-1α protein expression [3]: increased HIF-1α protein expression
HIF-1α target gene expression [3]: induced expression of HIF-1α target genes
